Source: patent US12053506B2, “Romo1-derived antimicrobial peptides and variants thereof” (priority 2019, dated 2024)
≈ marks a conversion by molar mass, not a printed value. Like-named read-outs stand apart in the source and are kept apart here. Non-standard residues stand in square brackets, D forms with d. Residues, ends and D or L forms follow the SMILES beside them. No end group written: not given here.

Assays:
[1] = tested on: Pseudomonas aeruginosa (ATCC 27853); assay type: cell-based; conditions: for MBC Pseudomonas aeruginosa: Tables 11-15, no unit printed
In short: (§1)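 Bacteria grown in 3% TSB at 37° C, diluted in 10 mM sodium phosphate/1% TSB to 1×10^5 CFU/ml in wells, exposed to peptides (0–300 μg/ml) for 1 h at 37° C. Mixtures plated on TS agar for 18 h at 37° C; MBC is the lowest concentration giving no colonies.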

[2] = tested on: Staphylococcus aureus (ATCC 29213); assay type: cell-based; conditions: for MBC Staphylococcus aureus: Tables 11-15, no unit printed
In short: as §1

mouse red blood cells = assay type: cell-based
Method: Red blood cells were diluted with PBS, centrifuged 3 times at 900 g for 10 minutes, and washed. 100 μl of the diluted red blood cell solution (10% v/v PBS) was dispensed into each well of a 96-well microplate, and KU-5878, KU-5878-K4, KU-5878-K4-D, melittin, magainin 2 or daptomycin was added to each well which was then filled with PBS to 200 μl, followed by reaction by incubation at 37° C. for 1 hour. Then, the supernatant of the reaction solution was separated, and the absorbance at a wavelength of 550 nm was measured using a spectrophotometer. As control, PBS and 0.1% Triton X-100 (Triton X-100) solution were used.
Based on the results of measurement of the absorbance, the degree of red blood cell destruction was calculated according to Equation 1 below, and the results of the calculation are shown in FIG. 6. The % intact RBC=100(%)−[(absorbance of peptide-treated red blood cell solution−absorbance of PBS-treated red blood cell solution)/(absorbance of Triton X-100-treated red blood cell solution−absorbance of PBS-treated red blood cell solution)×100(%)] [Equation 1]

[3] = tested on: Pseudomonas aeruginosa and Staphylococcus aureus; experiment: MBC assay, antibacterial activity of Romo1-derived peptides compared in words; assay type: cell-based; conditions: Table 1 peptides
From the text: Romo1 protein comprises two α-helices. The present inventors synthesized the α-helix 2 region having both hydrophilicity and hydrophobicity, and evaluated the antibacterial activity thereof using minimum bactericidal concentration (MBC) assay. The α-helix 2 region was named KU-5279 (the 52-79 amino acid region of Romo1 protein). Then, in order to identify peptides that are beneficial for human application and have excellent antibacterial activity, the present inventors synthesized several peptides comprising a sequence of contiguous amino acids starting at any amino acid selected from the 52-79 amino acid region of Romo1 protein, and comparatively evaluated the antibacterial activities of the peptides by minimum bactericidal concentration assay (See Table 1 below for information on each peptide). Evaluation of the antibacterial activity of each peptide by minimum bactericidal concentration assay was specifically performed as follows. First, each of Pseudomonas aeruginosa (ATCC 27853) and Staphylococcus aureus (ATCC 29213) was cultured in 3% (w/v) TSB (Tryptic Soy Broth) liquid medium at 37° C. and 200 rpm for 4 hours, and then further cultured under the same conditions for 3 hours to a concentration of 5×10^6 CFU/ml. […]

[4] = tested on: methicillin-resistant Staphylococcus aureus (ATCC 33591); conditions: for MBC value (μg/ml) against methicillin-resistant Staphylococcus aureus: ATCC 33591, 4 h; for MBC MRSA: Tables 11-15, no unit printed
[5] = tested on: multidrug-resistant Pseudomonas aeruginosa; conditions: 4 h
Method: First, each of Pseudomonas aeruginosa (ATCC 27853) and Staphylococcus aureus (ATCC 29213) was cultured in 3% (w/v) TSB (Tryptic Soy Broth) liquid medium at 37° C. and 200 rpm for 4 hours, and then further cultured under the same conditions for 3 hours to a concentration of 5×10^6 CFU/ml. Strain solutions were prepared by diluting each of the further cultured strains with SP (sodium phosphate; 10 mM sodium phosphate, 1% TSB) buffer to a final concentration of 2×10^5 CFU/ml.
(§2) Then, each peptide at varying concentrations (0 μg/ml to 300 μg/ml) was dispensed into each well of a 96-well microplate, and 100 μl (1×10^5 CFU/ml) of each of the prepared strain solutions was added thereto, mixed therewith, and allowed to react with the peptide in an incubator at 37° C. for 1 hour.
In addition, 30 g/L of TS (tryptic soy) and 15 g/L of agar were dissolved in distilled water and sterilized, and then 25 ml of the solution was poured onto a 100 mm round plate and solidified at room temperature for one day or more, thereby preparing a TS agar plate. 10 μl of each reaction solution of the peptide and the strain was plated on the TS agar plate at a constant size, and incubated in an incubator at 37° C. for 18 hours, and then colony formation on the plate was checked.
(§3) Specifically, each type of bacteria was cultured in 3% (w/v) TSB (Tryptic Soy Broth) liquid medium at 37° C. and 200 rpm for 4 hours, and then further cultured under the same conditions for 3 hours to a concentration of 5×10^6 CFU/ml. Strain solutions were prepared by diluting each of the […] of 2×10^5 CFU/ml.
as §2, with “Then, the KU-5878” for “Then, each”
(§4) In addition, 10 μl of each reaction solution of the peptide and the strain was plated on the TS agar plate at a constant size, and incubated in an incubator at 37° C. for 18 hours, and then colony formation on the plate was checked.
(§5) Meanwhile, the multidrug-resistant Pseudomonas aeruginosa, multidrug-resistant Acinetobacter and multidrug-resistant Klebsiella in Table 2 below were bacteria isolated from patients at Korea University Anam Hospital. […] Then, these bacteria were used in the experiment.

[6] = tested on: Streptococcus pneumoniae (NCCP 14585); assay type: cell-based; conditions: NCCP 14585, 4 h
Method: (§6) The minimum bactericidal concentration assay was the same as the method used in Example 1.
as §3
as §2, with “Then, the KU-5878” for “Then, each”
as §4, with “checked. The minimum bactericidal concentration was defined as the minimum concentration of the peptide at which no colony was formed, and the experimental results are shown in Table 2 below.” for “checked.”

[7] = tested on: Acinetobacter baumannii (ATCC 19606); experiment: Minimum bactericidal concentration (MBC) assay; assay type: cell-based
Method: as §6, §3
as §2, with “Then, the KU-5878” for “Then, each”
as §4, with “checked. The minimum bactericidal concentration was defined as the minimum concentration of the peptide at which no colony was formed, and the experimental results are shown in Table 2 below.” for “checked.”

[8] = tested on: Bacillus subtilis (ATCC 6633); experiment: Minimum bactericidal concentration (MBC) assay; assay type: cell-based
Method: as §6, §3
as §2, with “Then, the KU-5878” for “Then, each”
as §4, with “checked. The minimum bactericidal concentration was defined as the minimum concentration of the peptide at which no colony was formed, and the experimental results are shown in Table 2 below.” for “checked.”

[9] = tested on: Enterobacter aerogenes (ATCC 13048); experiment: Minimum bactericidal concentration (MBC) assay; assay type: cell-based
Method: as §6, §3
as §2, with “Then, the KU-5878” for “Then, each”
as §4, with “checked. The minimum bactericidal concentration was defined as the minimum concentration of the peptide at which no colony was formed, and the experimental results are shown in Table 2 below.” for “checked.”

[10] = tested on: Enterococcus faecalis (ATCC 19433); experiment: Minimum bactericidal concentration (MBC) assay; assay type: cell-based
Method: as §6, §3
as §2, with “Then, the KU-5878” for “Then, each”
as §4, with “checked. The minimum bactericidal concentration was defined as the minimum concentration of the peptide at which no colony was formed, and the experimental results are shown in Table 2 below.” for “checked.”

[11] = tested on: Enterococcus faecium (ATCC 19434); experiment: Minimum bactericidal concentration (MBC) assay; assay type: cell-based
Method: as §6, §3
as §2, with “Then, the KU-5878” for “Then, each”
as §4, with “checked. The minimum bactericidal concentration was defined as the minimum concentration of the peptide at which no colony was formed, and the experimental results are shown in Table 2 below.” for “checked.”

[12] = tested on: Escherichia coli (ATCC 25922); experiment: Minimum bactericidal concentration (MBC) assay; assay type: cell-based
Method: as §6, §3
as §2, with “Then, the KU-5878” for “Then, each”
as §4, with “checked. The minimum bactericidal concentration was defined as the minimum concentration of the peptide at which no colony was formed, and the experimental results are shown in Table 2 below.” for “checked.”

[13] = tested on: Klebsiella pneumoniae (ATCC 13883); experiment: Minimum bactericidal concentration (MBC) assay; assay type: cell-based
Method: as §6, §3
as §2, with “Then, the KU-5878” for “Then, each”
as §4, with “checked. The minimum bactericidal concentration was defined as the minimum concentration of the peptide at which no colony was formed, and the experimental results are shown in Table 2 below.” for “checked.”

[14] = tested on: Streptomyces sindenensis (ATCC 12392); experiment: Minimum bactericidal concentration (MBC) assay; assay type: cell-based
Method: as §6, §3
as §2, with “Then, the KU-5878” for “Then, each”
as §4, with “checked. The minimum bactericidal concentration was defined as the minimum concentration of the peptide at which no colony was formed, and the experimental results are shown in Table 2 below.” for “checked.”

[15] = tested on: Multidrug-resistant A. baumannii; conditions: multidrug-resistant, 4 h
Method: as §6, §3
as §2, with “Then, the KU-5878” for “Then, each”
as §4, §5

[16] = tested on: Multidrug-resistant K. pneumoniae; conditions: multidrug-resistant, 4 h
Method: as §6, §3
as §2, with “Then, the KU-5878” for “Then, each”
as §4, §5

[17] = tested on: Vancomycin-resistant E. faecium (NCCP 11522); assay type: cell-based, Enterococcus faecium; conditions: Vancomycin-resistant (NCCP 11522, 4 h)
Method: as §6, §3
as §2, with “Then, the KU-5878” for “Then, each”
as §4, with “checked. The minimum bactericidal concentration was defined as the minimum concentration of the peptide at which no colony was formed, and the experimental results are shown in Table 2 below.” for “checked.”

[18] = tested on: Vancomycin-resistant S. aureus (NCCP 15872); assay type: cell-based, Staphylococcus aureus; conditions: Vancomycin-resistant (NCCP 15872, 4 h)
Method: as §6, §3
as §2, with “Then, the KU-5878” for “Then, each”
as §4, with “checked. The minimum bactericidal concentration was defined as the minimum concentration of the peptide at which no colony was formed, and the experimental results are shown in Table 2 below.” for “checked.”

CRPA = experiment: MBC, evaluation of antibacterial activities of KU-5878 variants; assay type: cell-based; conditions: Tables 11-15, no unit printed

Compound	hemolysis of red blood cells (mouse red blood cells)	MBC value (μg/ml) against Pseudomonas aeruginosa ([1]; ATCC 27853, 1 h) [µg/mL]	MBC value (μg/ml) against Staphylococcus aureus ([2]; ATCC 29213, 1 h) [µg/mL]	MBC value (μg/ml) against methicillin-resistant Staphylococcus aureus [4] [µg/mL]	MBC value (μg/ml) against multidrug-resistant Pseudomonas aeruginosa [5] [µg/mL]	MBC Pseudomonas aeruginosa [1] [µg/mL]	MBC Staphylococcus aureus [2] [µg/mL]	MBC MRSA [4] [µg/mL]	MBC CRPA (CRPA) [µg/mL]	other results
CC[C@H](C)[C@H](NC(=O)CNC(=O)[C@H](CCSC)NC(=O)CNC(=O)[C@@H](NC(=O)[C@H](C)NC(=O)[C@H](CCSC)NC(=O)[C@H](Cc1ccccc1)NC(=O)[C@@H](NC(=O)CNC(=O)[C@H](Cc1ccccc1)NC(=O)[C@@H](CCCCN)NC(=O)CNC(=O)CNC(=O)[C@@H](CCCCN)NC(=O)[C@@H](CCCCN)NC(=O)[C@H](CCSC)NC(=O)[C@H](CCSC)NC(=O)[C@@H](CCCCN)NC(=O)[C@@H](N)CCCCN)[C@@H](C)O)[C@@H](C)CC)C(=O)N[C@@H](CCCNC(=N)N)C(=O)O [KU-5878-K4-D] (H-K[dK]MM[dK][dK]GG[dK]FGTFMAIGMGIR-OH)	little hemolysis of red blood cells									MBC (μg/ml) value against Pseudomonas aeruginosa ([1]; ATCC 27853, 1 h): 3 µg/mL (≈ 1.29 µM); MBC (μg/ml) value against Staphylococcus aureus ([2]; ATCC 29213, 1 h): 3 µg/mL (≈ 1.29 µM)
CLRIGMRGRELM [pCM12, reference compound]		>300	>300							antibacterial activity by MBC assay, in words [3]: low bactericidal activity
KKMMKKGGKFGTFMAIGMGIR [KU-5878-K4]	little hemolysis of red blood cells	4	3	5	5					MBC (μg/ml) value against Pseudomonas aeruginosa ([1]; ATCC 27853): 4 µg/mL; MBC (μg/ml) value against Staphylococcus aureus ([2]; ATCC 29213): 3 µg/mL; MBC value (μg/ml), Streptococcus pneumoniae [6]: 4 µg/mL; MBC value (μg/ml), Acinetobacter baumannii [7]: 4 µg/mL; MBC value (μg/ml), Bacillus subtilis [8]: 5 µg/mL; MBC value (μg/ml), Enterobacter aerogenes [9]: 5 µg/mL; MBC value (μg/ml), Enterococcus faecalis [10]: 5 µg/mL; MBC value (μg/ml), Enterococcus faecium [11]: 5 µg/mL; MBC value (μg/ml), Escherichia coli [12]: 5 µg/mL; MBC value (μg/ml), Klebsiella pneumoniae [13]: 5 µg/mL; MBC value (μg/ml), Streptomyces sindenensis [14]: 5 µg/mL; MBC value (μg/ml), Multidrug-resistant A. baumannii [15]: 4 µg/mL; MBC value (μg/ml), Multidrug-resistant K. pneumoniae [16]: 5 µg/mL; MBC value (μg/ml), Vancomycin-resistant E. faecium [17]: 5 µg/mL; MBC value (μg/ml), Vancomycin-resistant S. aureus [18]: 6 µg/mL
KTMMQSGGTFGTFMAIGMGIA [KU-5878-R78A]		>300	>300	>300	>300	> 300	> 300	> 300	> 300	
KTMMQSGGTFGTFMAIGMGIK [KU-5878-R78K]		>300	>300	>300	>300	> 300	> 300	> 300	> 300	
RTMMQSGGTFGTFMAIGMGIR [KU-5878-K58R]		120	120	130	120	120	120	120	120	
